# Measurements: ChEMBL document CHEMBL1240324, “TRPM8 voltage sensor mutants reveal a mechanism for integrating thermal and chemical stimuli” (Nat Chem Biol, 2007)
# Calls of active or inactive are those of the source. No cut-off for these calls is given here.
# How the values were obtained:
# [1] = Binding affinity to human TRPM8 S4b_M mutant expressed in HEK293 cell membranes
# [2] = Activity at human TRPM8 S4b_M mutant expressed in HEK293 cells assessed as compound concentration causing leftward shift of voltage for half maximal activation; format: cell-based
# [3] = system: Transient receptor potential cation channel subfamily M member 8 (Homo sapiens), Q7Z2W7 [Y745H]; details: HEK293, 100 uM
# [4] = system: Transient receptor potential cation channel subfamily M member 8 (Homo sapiens), Q7Z2W7 [L1009R]; details: HEK293, 100 uM
# HEK293 = test: Displacement of [3H]menthol from human TRPM8 S4b_M5 mutant expressed in HEK293 cell membranes at 100 uM by scintillation counting
# Chain of Transient receptor potential cation channel subfamily M member 8 (Homo sapiens), Q7Z2W7 [Y745H] (Q7Z2W7 whole entry Y745H): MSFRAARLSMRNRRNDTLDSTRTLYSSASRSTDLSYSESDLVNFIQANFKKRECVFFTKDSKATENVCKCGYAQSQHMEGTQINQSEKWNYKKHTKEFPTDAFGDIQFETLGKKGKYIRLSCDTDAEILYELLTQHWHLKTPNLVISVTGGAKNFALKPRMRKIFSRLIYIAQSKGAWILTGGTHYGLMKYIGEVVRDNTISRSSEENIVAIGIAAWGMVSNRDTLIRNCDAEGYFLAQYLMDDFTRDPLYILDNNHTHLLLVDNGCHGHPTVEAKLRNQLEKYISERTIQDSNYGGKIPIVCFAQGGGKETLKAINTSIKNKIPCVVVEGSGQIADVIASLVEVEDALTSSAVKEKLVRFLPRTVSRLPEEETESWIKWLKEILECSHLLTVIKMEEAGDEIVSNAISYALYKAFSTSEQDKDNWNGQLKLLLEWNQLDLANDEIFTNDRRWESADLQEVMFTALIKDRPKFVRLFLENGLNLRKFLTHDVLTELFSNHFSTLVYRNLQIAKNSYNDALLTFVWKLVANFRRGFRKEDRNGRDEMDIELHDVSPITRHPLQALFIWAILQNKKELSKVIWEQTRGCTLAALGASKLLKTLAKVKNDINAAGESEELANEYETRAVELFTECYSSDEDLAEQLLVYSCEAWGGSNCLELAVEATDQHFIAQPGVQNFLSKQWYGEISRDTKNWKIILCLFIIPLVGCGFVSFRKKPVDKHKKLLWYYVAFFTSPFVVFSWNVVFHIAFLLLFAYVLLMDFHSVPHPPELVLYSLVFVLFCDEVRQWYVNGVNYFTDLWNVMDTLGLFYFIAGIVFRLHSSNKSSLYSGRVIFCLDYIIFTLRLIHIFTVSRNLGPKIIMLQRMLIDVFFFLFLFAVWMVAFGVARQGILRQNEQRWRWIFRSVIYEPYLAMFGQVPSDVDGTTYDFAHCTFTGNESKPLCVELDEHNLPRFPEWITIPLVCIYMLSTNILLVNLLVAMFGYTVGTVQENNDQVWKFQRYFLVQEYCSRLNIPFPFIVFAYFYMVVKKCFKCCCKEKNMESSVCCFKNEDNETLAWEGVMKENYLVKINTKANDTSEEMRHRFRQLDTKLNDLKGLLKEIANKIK
# Chain of Transient receptor potential cation channel subfamily M member 8 (Homo sapiens), Q7Z2W7 [L1009R] (Q7Z2W7 whole entry L1009R): as the sequence (Q7Z2W7 whole entry Y745H) above, with H745Y, L1009R counted along it
compound,measurement,setting,value
CC1CCC(C(C)C)C(O)C1 (stereo not given) [MENTHOL],Kd,[1],220 µM
same,EC50,[2],477 µM
same,inhibition,[3],inactive
same,inhibition,[4],Active
same,inhibition,HEK293,inactive
